The results in this text go back to ChEMBL document CHEMBL1146078, “Discovery and preclinical studies of (R)-1-(4-(4-fluoro-2-methyl-1H-indol-5-yloxy)-5- methylpyrrolo[2,1-f][1,2,4]triazin-6-yloxy)propan- 2-ol (BMS-540215), an in vivo active potent VEGFR-2 inhibitor” (J Med Chem, 2006).

Data set [1] is described as follows: AUC in mice at 50 mg/kg after 4 hrs. It is filed as ADME, organism-based. Details: time < 4 hr, dose 50 mg/kg. As to conditions: mouse, plasma.
Data set [2] in a line: Cmax in mice at 50 mg/kg after 4 hrs. Details: dose 50 mg/kg. As to conditions: mouse, in vivo. It is filed as ADME, organism-based.
Another data set concerns the target Cytochrome P450 3A4 (Homo sapiens, UniProt P08684). The data set is described as follows: Inhibitory activity against CYP3A4.
The target of data set [3] is Voltage-gated inwardly rectifying potassium channel KCNH2 (Homo sapiens, UniProt Q12809). The experiment in a line: Inhibitory activity against hERG by patch-clamp assay. In kind it is functional.
For data set [4], the target named is Vascular endothelial growth factor receptor 2 (Mus musculus, UniProt P35918). The experiment in a line: Inhibitory activity against Flk1.
For data set [5], the system named is H3396. The data set is described as follows: Antitumor activity against H3396 cell xenografted in athymic mice at 60 mg/kg. In kind it is functional, Homo sapiens.
Data set [6] in a line: AUC in BALB/c mouse at 10 mg/kg, iv after 24 hrs. It is filed as ADME, organism-based. More on the design: time < 24 hr, dose 10 mg/kg, route intravenous. Particulars: plasma.
The nature of data set [7]: Half life in BALB/c mouse at 10 mg/kg, iv after 24 hrs. It is filed as ADME, organism-based. More on the design: dose 10 mg/kg, route intravenous. As to conditions: in vivo.
A short description of data set [8]: Mean residence time in BALB/c mouse at 10 mg/kg, iv after 24 hrs. As to conditions: in vivo. More on the design: dose 10 mg/kg, route intravenous. In kind it is ADME, organism-based.
The nature of data set [9]: Systemic clearance in BALB/c mouse at 10 mg/kg, iv after 24 hrs. It is filed as ADME, organism-based. Details: dose 10 mg/kg, route intravenous. As to conditions: in vivo.
The nature of data set [10]: Volume of distribution in BALB/c mouse at 10 mg/kg, iv after 24 hrs. It is filed as ADME, organism-based. Details: dose 10 mg/kg, route intravenous. Particulars: in vivo, read-out: Vss.
Data set [11] can be described thus: AUC in BALB/c mouse at 60 mg/kg, po after 24 hrs. It is filed as ADME, organism-based. More on the design: time < 24 hr, dose 60 mg/kg, route oral. As to conditions: plasma.
The nature of data set [12]: Half life in BALB/c mouse at 60 mg/kg, po after 24 hrs. More on the design: dose 60 mg/kg, route oral. Particulars: in vivo. It is filed as ADME, organism-based.
Data set [13] is described as follows: Oral bioavailability in BALB/c mouse at 60 mg/kg, po after 24 hrs. In kind it is ADME, organism-based. As to conditions: in vivo.
Data set [14] has as its system H3396. The experiment in a line: Antitumor activity against H3396 cell xenografted in athymic mice at 90 mg/kg. In kind it is functional, Homo sapiens.
The nature of data set [15]: Cmax in rat at 25 mg/kg as solution after 24 hrs. In kind it is ADME, organism-based. Details: dose 25 mg/kg. Particulars: in vivo.
The nature of data set [16]: Cmax in rat at 25 mg/kg as micronized suspension after 24 hrs. Particulars: in vivo. In kind it is ADME, organism-based. More on the design: dose 25 mg/kg.
Data set [17] can be described thus: Cmax in rat at 100 mg/kg as micronized suspension after 24 hrs. In kind it is ADME, organism-based. Details: dose 100 mg/kg. As to conditions: in vivo.
Data set [18] in a line: Cmax in rat at 200 mg/kg as micronized suspension after 24 hrs. In kind it is ADME, organism-based. Details: dose 200 mg/kg. Particulars: in vivo.
A short description of data set [19]: AUC in rat at 25 mg/kg as solution after 24 hrs. It is filed as ADME, organism-based. Details: time < 24 hr, dose 25 mg/kg. As to conditions: plasma.
Data set [20] in a line: AUC in rat at 25 mg/kg as micronized suspension after 24 hrs. More on the design: time < 24 hr, dose 25 mg/kg. In kind it is ADME, organism-based. As to conditions: plasma.
A short description of data set [21]: AUC in rat at 100 mg/kg as micronized suspension after 24 hrs. In kind it is ADME, organism-based. Details: time < 24 hr, dose 100 mg/kg. As to conditions: plasma.
Data set [22] is described as follows: AUC in rat at 200 mg/kg as micronized suspension after 24 hrs. Particulars: plasma. Details: time < 24 hr, dose 200 mg/kg. In kind it is ADME, organism-based.
The nature of data set [23]: Tmax in male BALB/c mice. It is filed as ADME, organism-based. As to conditions: mouse, in vivo.
For the next data set, the target named is hERG (Homo sapiens, UniProt Q12809). The experiment in a line: Inhibitory activity against hERG by patch-clamp assay at 1 uM. It is filed as functional.
hERG, sequence (Q12809 whole entry): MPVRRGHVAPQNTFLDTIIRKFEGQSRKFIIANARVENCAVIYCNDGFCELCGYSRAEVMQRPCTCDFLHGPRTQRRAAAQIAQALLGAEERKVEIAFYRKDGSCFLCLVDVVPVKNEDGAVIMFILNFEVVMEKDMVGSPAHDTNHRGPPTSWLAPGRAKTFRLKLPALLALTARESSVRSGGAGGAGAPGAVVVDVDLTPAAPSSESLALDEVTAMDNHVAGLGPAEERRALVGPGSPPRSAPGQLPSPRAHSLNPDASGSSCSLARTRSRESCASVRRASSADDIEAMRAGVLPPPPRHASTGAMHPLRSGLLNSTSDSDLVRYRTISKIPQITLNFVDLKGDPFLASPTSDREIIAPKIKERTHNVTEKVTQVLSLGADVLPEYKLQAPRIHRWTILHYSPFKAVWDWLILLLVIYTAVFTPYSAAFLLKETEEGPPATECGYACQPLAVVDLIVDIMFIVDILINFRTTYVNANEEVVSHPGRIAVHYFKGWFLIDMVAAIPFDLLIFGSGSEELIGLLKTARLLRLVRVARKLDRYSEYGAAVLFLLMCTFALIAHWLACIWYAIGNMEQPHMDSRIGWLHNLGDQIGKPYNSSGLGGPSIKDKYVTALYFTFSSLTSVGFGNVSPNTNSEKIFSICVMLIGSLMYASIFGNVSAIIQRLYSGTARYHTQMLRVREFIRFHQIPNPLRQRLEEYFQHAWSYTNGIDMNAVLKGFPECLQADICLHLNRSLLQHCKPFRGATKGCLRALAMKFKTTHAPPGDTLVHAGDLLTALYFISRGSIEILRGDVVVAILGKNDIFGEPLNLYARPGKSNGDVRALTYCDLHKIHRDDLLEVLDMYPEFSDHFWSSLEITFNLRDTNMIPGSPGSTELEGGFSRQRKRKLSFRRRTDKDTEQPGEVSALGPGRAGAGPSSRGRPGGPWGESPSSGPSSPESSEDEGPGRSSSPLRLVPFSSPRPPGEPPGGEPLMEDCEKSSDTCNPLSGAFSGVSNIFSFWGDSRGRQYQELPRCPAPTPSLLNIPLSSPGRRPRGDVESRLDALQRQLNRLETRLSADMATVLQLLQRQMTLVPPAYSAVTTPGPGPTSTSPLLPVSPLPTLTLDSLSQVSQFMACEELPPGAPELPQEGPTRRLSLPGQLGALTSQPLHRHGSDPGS

Voltage-gated inwardly rectifying potassium channel KCNH2, sequence (Q12809 whole entry): as above
Cytochrome P450 3A4, sequence (P08684 whole entry): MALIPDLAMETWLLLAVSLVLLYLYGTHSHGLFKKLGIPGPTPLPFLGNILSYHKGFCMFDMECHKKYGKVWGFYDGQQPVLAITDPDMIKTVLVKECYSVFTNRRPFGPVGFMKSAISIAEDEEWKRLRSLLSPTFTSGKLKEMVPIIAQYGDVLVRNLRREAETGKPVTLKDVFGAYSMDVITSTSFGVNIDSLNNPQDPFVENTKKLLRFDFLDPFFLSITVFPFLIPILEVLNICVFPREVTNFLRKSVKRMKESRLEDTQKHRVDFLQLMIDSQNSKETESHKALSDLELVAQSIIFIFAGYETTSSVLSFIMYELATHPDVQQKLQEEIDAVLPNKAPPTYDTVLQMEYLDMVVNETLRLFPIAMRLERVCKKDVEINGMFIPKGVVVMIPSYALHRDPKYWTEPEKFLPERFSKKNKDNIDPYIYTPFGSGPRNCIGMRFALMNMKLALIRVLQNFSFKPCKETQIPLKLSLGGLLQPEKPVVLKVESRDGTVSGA
Vascular endothelial growth factor receptor 2, sequence (P35918 whole entry): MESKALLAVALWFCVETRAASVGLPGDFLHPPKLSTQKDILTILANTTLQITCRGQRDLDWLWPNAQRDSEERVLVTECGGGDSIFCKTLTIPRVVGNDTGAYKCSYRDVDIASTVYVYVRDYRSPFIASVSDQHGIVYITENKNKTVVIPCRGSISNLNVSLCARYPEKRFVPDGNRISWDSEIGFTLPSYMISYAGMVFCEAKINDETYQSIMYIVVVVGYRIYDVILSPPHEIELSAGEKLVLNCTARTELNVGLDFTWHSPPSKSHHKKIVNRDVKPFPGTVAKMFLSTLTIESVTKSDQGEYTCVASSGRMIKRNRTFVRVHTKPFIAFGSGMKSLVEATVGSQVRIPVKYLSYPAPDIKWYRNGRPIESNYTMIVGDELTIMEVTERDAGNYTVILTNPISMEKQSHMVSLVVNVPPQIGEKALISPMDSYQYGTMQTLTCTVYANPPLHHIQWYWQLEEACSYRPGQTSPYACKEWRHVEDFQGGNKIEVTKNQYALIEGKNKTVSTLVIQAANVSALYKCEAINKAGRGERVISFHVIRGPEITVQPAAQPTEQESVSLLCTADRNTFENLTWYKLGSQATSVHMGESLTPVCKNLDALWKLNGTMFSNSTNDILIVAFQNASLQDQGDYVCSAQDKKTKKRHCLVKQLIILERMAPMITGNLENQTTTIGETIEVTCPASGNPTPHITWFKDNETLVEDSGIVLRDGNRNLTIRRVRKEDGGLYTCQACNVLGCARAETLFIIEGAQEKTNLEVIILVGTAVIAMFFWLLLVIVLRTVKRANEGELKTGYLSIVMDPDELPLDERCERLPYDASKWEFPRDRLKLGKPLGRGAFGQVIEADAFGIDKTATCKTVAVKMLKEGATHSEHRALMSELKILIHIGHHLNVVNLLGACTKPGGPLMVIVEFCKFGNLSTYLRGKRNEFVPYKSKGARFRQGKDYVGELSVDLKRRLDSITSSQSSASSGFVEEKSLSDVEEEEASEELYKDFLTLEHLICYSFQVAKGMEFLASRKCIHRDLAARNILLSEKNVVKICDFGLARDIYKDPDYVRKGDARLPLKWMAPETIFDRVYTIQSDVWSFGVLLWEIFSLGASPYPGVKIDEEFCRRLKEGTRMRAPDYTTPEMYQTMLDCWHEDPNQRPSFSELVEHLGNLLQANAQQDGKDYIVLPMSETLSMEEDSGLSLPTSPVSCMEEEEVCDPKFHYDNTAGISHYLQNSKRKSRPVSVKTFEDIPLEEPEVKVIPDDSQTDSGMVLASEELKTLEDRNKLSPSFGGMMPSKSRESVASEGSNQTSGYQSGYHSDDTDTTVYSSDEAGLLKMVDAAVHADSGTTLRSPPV

For `Cc1cc2c(F)c(Oc3ncnn4cc(OCCC5CCN(C)CC5)c(C)c34)ccc2[nH]1`, the AUC at 4 h in data set [1] is 2.2 µM·h. The molecule also gave a Cmax in [2] of 0.7 µM. For the same molecule, half-maximal inhibition on Cytochrome P450 3A4 (IC50) was put at 700 nM.

In data set [1], `Cc1cc2c(F)c(Oc3ncnn4cc(OC[C@H](C)O)c(C)c34)ccc2[nH]1` displayed an AUC at 4 h of 146 µM·h. This molecule registered a Cmax in [2] of 56 µM.

`COC[C@@H](O)COc1cn2ncnc(Oc3ccc4[nH]c(C)cc4c3F)c2c1C` registered an AUC at 4 h in data set [1] of 128 µM·h. For the same molecule, in [2], the Cmax was 41 µM. Moreover, the IC50 on Cytochrome P450 3A4 worked out at 1000 nM; in data set [3], 18000 nM.

Take `Cc1cc2c(F)c(Oc3ncnn4cc(OC[C@@H](C)O)c(C)c34)ccc2[nH]1` [BRIVANIB]: in data set [1], the AUC at 4 h was found to be 136 µM·h. Besides, the Cmax in [2] was determined as 41 µM; in data set [15] it was 6.4 µM; in data set [16] it was 0.55 µM; in data set [17], 2.05 µM; in data set [18], 1.71 µM. In addition, the values for the IC50 in data set [3] and in data set [4] were 18000 nM and 89 nM, respectively. This molecule showed a Ki in [4] of 28 nM. In addition, the Activity in the data set with H3396 [5] is 85%; in the data set with H3396 [14], 97%. The AUC at 24 h in [6] was 49 µM·h; in data set [11] it was 224 µM·h; in data set [19], 13.4 µM·h; in data set [20] it was 3.35 µM·h; in data set [21], 8.43 µM·h; in data set [22], 7.61 µM·h. For the same molecule, the results for the half-life in data set [7] and in data set [12] were 2.7 h and 3.6 h, respectively. The molecule further showed a mean residence time MRT in data set [8] of 3.6 h. The clearance in [9] is 9.3 mL/min/kg. Besides, the Vd in data set [10] turned out to be 2 L/kg. The same molecule returned a bioavailability in data set [13] of 88%. For the same molecule, the Tmax in data set [23] was 1 h.

Molecule `Cc1cc2c(F)c(Oc3ncnn4cc(O)c(C)c34)ccc2[nH]1` registered an AUC at 4 h in data set [1] of 0.2 µM·h. In addition, the Cmax in data set [2] was found to be 0.2 µM.

In turn, `Cc1cc2c(F)c(Oc3ncnn4cc(OCCCS(C)(=O)=O)c(C)c34)ccc2[nH]1` gave an AUC at 4 h in [1] of 185 µM·h. This molecule had a Cmax in data set [2] of 57 µM. In addition, the IC50 amounted to 17000 nM against Cytochrome P450 3A4 and 20000 nM in [3].

`Cc1cc2c(F)c(Oc3ncnn4cc(OCCN5CCC(O)C5)c(C)c34)ccc2[nH]1` (single isomer, unassigned) gave an AUC at 4 h in data set [1] of 9.9 µM·h. Also, the Cmax in [2] stood at 3 µM. The molecule also came in with an inhibition at 1 µM against hERG of 38%.

In the case of `Cc1cc2c(F)c(Oc3ncnn4cc(OCCCN5CCCC5)c(C)c34)ccc2[nH]1`, in data set [1], the AUC at 4 h stood at 20.5 µM·h. This molecule also registered a Cmax in data set [2] of 5.9 µM. The molecule also came in with an inhibition at 1 µM on hERG of 66%.

As to `Cc1cc2c(F)c(Oc3ncnn4cc(OCCCNS(C)(=O)=O)c(C)c34)ccc2[nH]1`, in [1], the AUC at 4 h worked out at 96 µM·h. In data set [2], this molecule came in with a Cmax of 27 µM. Also, at Cytochrome P450 3A4, the IC50 is 1000 nM.

Turning to `Cc1cc2c(F)c(Oc3ncnn4cc(OCCCN5CCCCC5)c(C)c34)ccc2[nH]1`, in data set [1], the AUC at 4 h is 14 µM·h. The peak level in data set [2] (Cmax) was 4.2 µM. The molecule further yielded an IC50 against Cytochrome P450 3A4 of 1000 nM. The molecule further returned an inhibition at 1 µM against hERG of 70%.
